Results on one molecule are retold here after paper PMC7838189, “Natural podophyllotoxin analog 4DPG attenuates EMT and colorectal cancer progression via activation of checkpoint kinase 2” (Cell Death Discovery, 2021).

SMILES strings stand for the structures.

One experiment deals with SW-620/5-FU-R cells. Put plainly: Immunocytochemistry of Vimentin. In kind it is cell-based. Conditions: 48 h. An excerpt:
4DPG, a podophyllotoxin class of natural product anticancer compound (Supplementary Fig. S2A) has been recently described by our research group for its potent antitumor and anti-metastatic properties against aggressive cancers[31],[32]. Further, 4DPG augments phosphorylation and activation of Chk2 (Thr68) leading to suppression of EMT and invasiveness of p53-defective cancer cells. To investigate the effect of 4DPG on phosphorylation and expression levels of Chk2 in HCT-116/5-FU-R, SW-620/5-FU-R, and HT-29/5-FU-R cells, we treated these cells for 48 h with increasing concentrations of the compound, and whole-cell lysates were subjected to western blotting analysis. […] To determine the effect of 4DPG on the invasion abilities of these 5-FU-R cells, we performed in situ fluorescent gelatin degradation assay following our pre-standardized protocol[31],[37]. In physiological conditions, this assay mimics the extracellular matrix degradation by aggressive tumor cells undergoing invasion–metastasis process.
(§1) To examine whether 4DPG-mediated repression of Vimentin and invasiveness is a Chk2-dependent process, we performed genetic silencing of endogenous Chk2 in the 5-FU-R cells using target-specific SiRNAs.
(§2) Fig. 3 Chk2-dependent role of 4DPG in modulating p53 and repressing Vimentin expression in 5-FU-R cells. A Immunocytochemistry results showing the Vimentin expression level in SW-620/5-FU-R cells treated/transfected with scramble, SiChk2, scramble plus 4DPG, SiChk2 plus 4DPG, vehicle, PV1019, 4DPG, and PV1019 plus 4DPG for 48 h. Scale bars: 50 µm. […] C Matrigel invasion assay results showing invaded HCT-116/5-FU-R and SW-620/5-FU-R cells following 48 h of transient transfection with GFP and GFP-Chk2 plasmid construct. Scale bars: 50 µm. D Quantification of the number of invaded cells per field from the above experimental conditions. n = 3, error bars, mean ± SD; *P < 0.05, ***P < 0.001. E Immunocytochemistry results displaying Vimentin expression levels in HCT-116/5-FU-R and SW-620/5-FU-R cells after 48 h of transient transfection with pCDNA3 and/or HA-Chk2 plasmid construct. Scale bars: 50 µm. F Immunoprecipitation with Vimentin or p53 followed by western blotting analysis of p53 in SW-620/5-FU-R cells treated with vehicle and/or 4DPG (300 nM) for 48 h. G Cytosolic (left panel) and nuclear (right panel) extracts of SW-620/5-FU-R cells treated with vehicle and/or 4DPG (300 nM) for 48 h showing protein expression of Vimentin and p53. Tubulin and lamin expression was considered as endogenous loading controls for cytosolic and nuclear fractions, respectively.
We followed the standard protocol with some modifications for immunocytochemistry[56],[58]. In brief, cells, at a density of 4 × 10^5 cells/well, were seeded over the sterile coverslips placed in six-well plates. Following the respective treatment, cells were washed thrice with PBS. Next, the cells were fixed with 4% paraformaldehyde (pH = 7.4) for 15 min, permeabilized with 0.3% Triton X-100 for 10 min, and then blocked with 1% goat serum for 30 min. Consequently, the cells were incubated with anti-Vimentin antibody overnight at 4 °C, at a dilution of 1:100, followed by washing with PBST and further incubation with secondary anti-rabbit Alexa Fluor 488 (1:750 dilution). After subsequent washing and mounting, the images were captured at ×20 magnification under Floid Cell Imaging Station (Invitrogen).

The subject of the next experiment is HCT-116/5-FU-R cells. Put plainly: Matrigel invasion assay. Format: cell-based. Conditions: SiChk2 and PV1019 pre-treated conditions, 48 h.
Description: as §1
as §2, with “G Cytosolic (left panel) and nuclear (right panel) extracts of SW-620/5-FU-R cells treated with vehicle and/or 4DPG (300 nM) for 48 h showing protein expression of Vimentin and p53. Tubulin and lamin expression was considered as endogenous loading controls for cytosolic and nuclear fractions, respectively.” left out

`COc1cc([C@@H]2c3cc4c(cc3C[C@H]3COC(=O)[C@@H]32)OCO4)cc(OC)c1O[C@@H]1O[C@H](CO)[C@@H](O)[C@H](O)[C@H]1O` [4DPG, 4′-demethyl-deoxypodophyllotoxin glucoside]: in the experiment with SW-620/5-FU-R cells (300 nM), the “Vimentin expression level (immunocytochemistry)” value is recorded as “considerable decrease”. The results for the “inhibition of Vimentin level by 4DPG” value in the experiment with SW-620/5-FU-R cells (PV1019 plus 4DPG) and in the experiment with SW-620/5-FU-R cells (SiChk2 plus 4DPG (Chk2-silenced)) were “negligible inhibition” and “mild inhibition”, respectively. Besides, the “Vimentin level (immunocytochemistry)” value with SW-620/5-FU-R cells (scramble plus 4DPG) is on record as “substantial reduction”. For the same molecule, the “effect of 4DPG to block invasion abilities” value with HCT-116/5-FU-R cells is “distinctly reduced”.
